In US8288377B2, “Inhibitors of the interaction between MDM2 and p53” (Janssen Pharmaceutica N.V., priority 2007, dated 2012):

Key:
p53 in A2780 cells = test: p53 ELISA (preservation of p53 in A2780 cells); format: cell-based; conditions: Homo sapiens, treated with compound for 16 hours, read-out: p53-elisa LAD (lowest dose giving at least 140% of the value for p53 present in the control)
Protocol: The capacity of the compounds to preserve p53 in A2780 cells was measured with the p53 enzyme linked immunosorbent assay (ELISA). The p53 assay is a “sandwich” enzyme immunoassay employing two polyclonal antibodies. A polyclonal antibody, specific for the p53 protein, has been immobilized onto the surface of the plastic wells. Any p53 present in the sample to be assayed will bind to the capture antibody. The biotinylated detector polyclonal antibody also recognizes p53 protein, and will bind to any p53, which has been retained by the capture antibody. The detector antibody, in turn, is bound by horseradish peroxidase-conjugated streptavidin. The horseradish peroxidase catalyses the conversion of the chromogenic substrate o-phenylene diamine, the intensity of which is proportional to the amount of p53 protein bound to the plate. The coloured reaction product is quantified using a spectrophotometer. Quantitation is achieved by the construction of a standard curve using known concentrations of purified recombinant HIS tagged p53 protein (see example C.1).
A2780 cells (ATCC) were cultivated in RPMI 1640 supplemented with 10% fetal calf serum (FCS), 2 mM L-glutamine and gentamycin at 37° C. in a humidified incubator with 5% CO2.
A2780 cells were seeded at 20.000 cells per well in a 96 well plate, cultured for 24 hours and treated with compound for 16 hours at 37° C. in a humidified incubator. After incubation, the cells were washed once with phosphate-buffered saline and 30 μl, per well, low salt RIPA buffer (20 mM tris, pH7.0, 0.5 mM EDTA, 1% Nonidet P40, 0.5% DOC, 0.05% SDS, 1 mM PMSF, 1 μg/ml aprotinin and 0.5 μ/ml leupeptin) was added. Plates were placed on ice for 30 minutes to complete the lysis. p53 protein was detected in de lysates by using the sandwich ELISA, described below.
High binding polystyrene EIA/RIA 96 well plates (Costar 9018) were coated with the capture antibody pAb1801 (Abcam ab28-100) at a concentration of 1 μg/ml in coating buffer (0.1 M NaHCO3 pH8.2), 50 μl per well. The antibody was allowed to adhere overnight at 4° C. Coated plates were washed once with phosphate-buffered saline (PBS)/0.05% Tween 20 and 300 μl of blocking buffer (PBS, 1% bovine serum albumins (BSA)) was added, for an incubation period of 2 hours at room temperature. Dilutions of purified recombinant HIS tagged p53 protein, ranging from 3-200 ng/ml, were made in blocking buffer and used as standards.
Plates were washed twice with PBS/0.05% Tween 20 and blocking buffer or standards were added at 80 μl/well. To the standards, 20 μl of lysis buffer was added. The samples were added to the other wells at 20 μl lysate/well. After an overnight incubation at 4° C., plates were washed twice with PBS/0.05% Tween 20. Aliquots of 100 μl secondary polyclonal antibody p53(FL-393) (Tebubio, sc-6243) at a concentration of 1 μg/ml in blocking buffer were added to each well and allowed to adhere for 2 hours at room temperature. Plates were washed three times with PBS/0.05% Tween 20. Detection antibody anti-rabbit HRP (sc-2004, Tebubio) at 0.04 μg/ml in PBS/1% BSA was added and incubated for 1 hour at room temperature. Plates were washed three times with PBS/0.05% Tween 20 and 100 μl of substrate buffer was added (substrate buffer was prepared shortly before use by adding 1 tablet of 10 mg o-phenylene diamine (OPD) from Sigma and 125 μl 3% H2O2 to 25 ml OPD buffer: 35 mM citric acid, 66 mM Na2HPO4, pH5.6). After 5 to 10 minutes, colour reaction was stopped by adding 50 μl stop buffer (1 M H2SO4) per well. The absorbance at dual wavelengths of 490/655 nm was measured using a Biorad micro plate reader and the results were then analyzed.
For each experiment, controls (containing no drug) and a blank incubation (containing no cells or drugs) were run in parallel. The blank value was subtracted from all control and sample values. For each sample, the value of p53 (in absorbance units) was expressed as the percentage of the value for p53 present in the control. […]

[1] = tested on: A2780 ovarian cancer cells; test: Proliferation assay (Alamar Blue); format: cell-based; conditions: Homo sapiens, 96 h, 4-day incubation, read-out: pIC50 (negative log value of the IC50-value) (converted)
Protocol: Cellular activity of the compounds of formula (I) was determined on A2780 tumour cells using a colorimetric assay for cell toxicity or survival (see example C.2).
The human A2780 ovarian cancer cells were a kind gift from Dr. T. C. Hamilton (Fox Chase Cancer Centre, Pennsylvania, U.S.A.). The cells were cultured in RPMI 1640 medium supplemented with 2 mM L-Glutamine, 50 μg/ml gentamicin and 10% fetal calf serum.
Resazurin was purchased from Aldrich (Prod. No. 199303). Potassium ferrocyanide, potassium ferricyanide, KH2PO4 and K2HPO4 were purchased from Sigma (Prod. Nos. P9387, P8131, P5655 and P8281, respectively).
Potassium Phosphate Buffer 0.1 M (PPB) was made as follows: 2.72 gram KH2PO4 and 13.86 gram K2HPO4 were dissolved in 500 ml milli-Q H2O, the pH was adjusted to pH 7.4 and the volume was brought to 1 liter with milli-Q H2O; the buffer was filter sterilised and stored at room temperature. Resazurin stock solution (PPB-A) was prepared fresh by dissolving 45 mg resazurin in 15 ml PBS. 30 mM potassium ferricyanide (PPB-B) was prepared by dissolving 0.987 gram potassium ferricyanide in 100 ml PPB. 30 mM potassium ferrocyanide (PPB-C) was prepared by dissolving 1.266 gram potassium ferrocyanide in 100 ml PPB.
Mixture of PPB-A, PPB-B and PPB-C was prepared by mixing equal volumes of the respective solutions. Resazurin work solution (herein termed “Alamar Blue” solution) was prepared by diluting said mixture 20× (vol/vol) in PPB and filter sterilising; the Alamar Blue solution could be kept at 4° C. for a maximum of 2 weeks.
For experiments in 384 wells plates the cells were seeded at a density of 5×10^3 cells/ml in Falcon 384-well culture plates (Life Technologies, Merelbeke, Belgium), black with clear bottom, in 45 μl culture medium. Cells were allowed to adhere to plastic for 24 hr. The tested compound was pre-diluted (1/50 in culture medium) and 5 μl pre-diluted compound was added to the wells. Following 4-day incubation, 10 μl of the Alamar Blue solution was added to each well and the cells were further incubated for 5 hrs (A2780) at 37° C. The fluorescence intensity was measured for each well with a Fluorescence plate reader (Fluorskan, Labsystems, 540 nm excitation and 590 nm emission)
The antiproliferative activity was calculated as percentage of remaining viable cells in treated versus control (untreated cells) conditions. Within an experiment, the result for each experimental condition is the mean of 3 replicate wells. When appropriate, the experiments were repeated to establish full concentration-response curves. When appropriate, IC50-values (concentration of the drug, needed to reduce cell growth to 50% of the control) were computed using probit analysis for graded data (Finney, D. J., Probit Analyses, 2nd Ed. Chapter 10, Graded Responses, Cambridge University Press, Cambridge 1962). Herein the effects of test compounds are expressed as pIC50 (the negative log value of the IC50-value) (see Table 4).

| IC50 [1] | Structure (SMILES) | minimal effective concentration (p53 in A2780 cells) |
| --- | --- | --- |
| > 10 µM | OCc1cc(Nc2ccc3c(c2)OC2(CCNCC2)CN3CCc2c[nH]c3ccccc23)ccn1 [Compound 16] | > 10 µM |
| 4.79 µM | CN1CCN(CCc2c[nH]c3ccccc23)c2ccc(Nc3ccnc(CO)c3)cc21 [Compound 20] | 3 µM |
| > 10 µM | O=C1COc2cc(Nc3ccnc(CO)c3)ccc2N1CCc1c[nH]c2ccccc12 [Compound 21] | > 10 µM |
| 2.29 µM | OCc1cc(Nc2ccc3c(c2)OCCN3CCc2c[nH]c3ccccc23)ccn1 [Compound 22] | 1 µM |
| 3.02 µM | c1ccc2c(CCN3CCCc4cc(Nc5ccncc5)ccc43)c[nH]c2c1 [Compound 23] | > 10 µM |
| 5.62 µM | CC1CN(CCc2c[nH]c3ccccc23)c2ccc(Nc3ccnc4c3CCC4O)cc2O1 (stereo not drawn) [Compound 24] | 3 µM |
| ~5.62 µM | Cc1cccc2c(CCN3CC4(CCCCC4)Oc4cc(Nc5ccnc6c5CCC6O)ccc43)c[nH]c12 (stereo not drawn) [Compound 25] | 0.03 µM |
| ~6.03 µM | OC1CCc2c(Nc3ccc4c(c3)OC3(CCSCC3)CN4CCc3c[nH]c4ccccc34)ccnc21 (stereo not drawn) [Compound 26] | 0.03 µM |
| 5.13 µM | CCC1(C)CN(CCc2c[nH]c3ccccc23)c2ccc(Nc3ccnc4c3CCC4O)cc2O1 (stereo not drawn) [Compound 27] | 1 µM |
| 4.9 µM | OC1CCc2c(Nc3ccc4c(c3)OC3(CCCC3)CN4CCc3c[nH]c4ccccc34)ccnc21 (stereo not drawn) [Compound 28] | 3 µM |
| ~5.13 µM | OC1CCc2c(Nc3ccc4c(c3)OC3(CCCCC3)CN4CCc3c[nH]c4ccccc34)ccnc21 (stereo not drawn) [Compound 29] | 10 µM |
| 6.31 µM | OC1CCc2c(Nc3ccc4c(c3)OC3(CCOCC3)CN4CCc3c[nH]c4ccccc34)ccnc21 (stereo not drawn) [Compound 30] | > 10 µM |
| > 10 µM | OC1CCc2c(Nc3ccc4c(c3)OC3(CCNCC3)CN4CCc3c[nH]c4ccccc34)ccnc21 (stereo not drawn) [Compound 31] | > 10 µM |
| 2.19 µM | CC(C)N1CCC2(CC1)CN(CCc1c[nH]c3ccccc13)c1ccc(Nc3ccnc4c3CCC4O)cc1O2 (stereo not drawn) [Compound 33] | > 10 µM |
| 4.37 µM | Cc1cccc2c(CCN3CC4(CCCCC4)Oc4cc(Nc5ccnc(CO)c5)ccc43)c[nH]c12 [Compound 34] | 0.3 µM |
| ~5.13 µM | OCc1cc(Nc2ccc3c(c2)OC(c2ccoc2)CN3CCc2c[nH]c3ccccc23)ccn1 (stereo not drawn) [Compound 35] | 3 µM |
| 3.39 µM | CC(C)N1CCC2(CC1)CN(CCc1c[nH]c3ccccc13)c1ccc(Nc3ccnc(CO)c3)cc1O2 [Compound 36] | > 10 µM |
| 3.55 µM | Cc1cccc2c(CCN3CC(C)Oc4cc(Nc5ccnc(CO)c5)ccc43)c[nH]c12 (stereo not drawn) [Compound 37] | > 10 µM |
| 3.72 µM | Cc1cccc2c(CCN3CC(C)(C)Oc4cc(Nc5ccnc(CO)c5)ccc43)c[nH]c12 [Compound 38] | > 10 µM |
| ~4.79 µM | OCc1cc(Nc2ccc3c(c2)OC2(CCSCC2)CN3CCc2c[nH]c3ccccc23)ccn1 [Compound 39] | > 10 µM |
| ~4.79 µM | OCc1cc(Nc2ccc3c(c2)OC2(CCCC2)CN3CCc2c[nH]c3ccccc23)ccn1 [Compound 40] | > 10 µM |
| ~4.79 µM | OCc1cc(Nc2ccc3c(c2)OC2(CCCCC2)CN3CCc2c[nH]c3ccccc23)ccn1 [Compound 41] | > 10 µM |
| 4.79 µM | Cc1cccc2c(CCN3CC(C)Oc4cc(Nc5ccnc6c5CCC6O)ccc43)c[nH]c12 (stereo not drawn) [Compound 42] | > 10 µM |
| ~5.01 µM | CN1CCC2(CC1)CN(CCc1c[nH]c3ccccc13)c1ccc(Nc3ccnc(CO)c3)cc1O2 [Compound 43] | > 10 µM |
